Measurements published in patent US11542283B2, “Synthesis of peptide borate ester compound and use thereof” (JIANGSU CHIA TAI FENGHAI PHARMACEUTICAL CO., LTD., priority 2018, dated 2023).
Read-outs that look alike come from different tables or passages of the source. Values belong to the compound of their own block, whether it stands above or below them.

Assays:
[1] = target: human erythrocyte 20S proteasome (Homo sapiens (Human), UniProt P28074); assay: Assay of inhibition on proteasome activity (chymotrypsin-like, Suc-LLVY-AMC substrate); format: biochemical
Source text: The proteasome used in the present invention is human erythrocyte 20S proteasome, and the enzyme, fluorescent substrate and test buffer are all purchased from Enzo.

[2] = In-vivo pharmacokinetic evaluation in SD rats; conditions: male SD rats; for AUC(0-t) / MRT last / half-life / bioavailability: rat, plasma; for AUC(0-t) / MRT last / half-life / CL_obs / Vz_obs: 2.0 mg/kg; for bioavailability: oral, p.o. 2.0 mg/kg vs i.v. 2.0 mg/kg, read-out: F (oral bioavailability); for CL_obs / Vz_obs: i.v.
Protocol: Twelve male SD rats weighing 220±20g, were randomly divided into four groups.
Two groups were respectively given IV-9 and V-9A by tail vein injection at doses given in a table below, and before and 10 min, 20 min. 30 min, 1 h, 2 h, 4 h, 8 h, 12 h, 24 h and 36 h after administration, about 0.200 mL of blood was collected from the jugular vein, placed in a test tube containing EDTA-K2, and centrifuged at a high speed (7800×g) for 15 min. The plasma was separated, and stored at −15° C. to −35° C. The pharmacokinetic differences of IV-9 and V-9A administered by intravenous injection were compared.
The other two groups were respectively given IV-9 and V-9A by oral gavage at doses given in a table below, and before and 5 min, 10 min, 20 min, 30 min, 1 h, 2 h, 4 h, 8 h, 12 h, 24 h and 36 h after administration, about 0.200 mL of blood was collected from the jugular vein, placed in a test tube containing EDTA-K2, and centrifuged at a high speed (7800×g) for 15 min. The plasma was separated, and stored at −15° C. to −35° C. The pharmacokinetic differences of IV-9 and V-9A administered by oral gavage were compared.

ARH-77 xenograft tumors = assay: Evaluation in animal model of xenotransplantation (ARH-77 xenograft); format: in vivo, Balb/c nude mice; conditions: oral; for RTV Mean / T/C / TGI (tumor inhibition rate) / TV Mean: three weeks
Protocol: The human multiple myeloma cell line ARH-77 was used to implant tumors under the skin of Balb/enude mice to establish a transplanted tumor model. The specific experimental process is as follows.
1. 4-6 week-old Balb/c nude mice purchased from Shanghai Bikai Laboratory Animal Co., Ltd., were transferred to a barrier system to adapt to the environment for one week.
2. The cells were cultured to the logarithmic growth phase, digested, centrifuged, re-suspended in Matrigel at a density of 1×10^7 cells/ml, and placed on ice for later use. In the barrier system, the tumor cells were inoculated into the axilla of the animal's right forelimb in an amount of 1×10^6 cells per animal, and the inoculation volume for each animal was 100 microliters.
3. The animals were grown and the tumor volume was measured by a vernier caliper. When the average volume was increased to 100-150 mm^3, the animals were randomly divided into three groups including a blank control group, a positive drug group (Compound MLN-9708) and an experimental group […]), each group having 6 animals.
The formula for calculating tumor volume is: Volume(mm3)=0.5×(Length(mm)×Width(mm)2)
4. The compound used was formulated with a 5% R-sulfobutyl cyclodextrin sodium aqueous solution to give an appropriate concentration, ultrasonicated until the solution became clear, and then stored in a refrigerator at 4° C. for later use.
5. The mice were orally administered. The frequency of administration for the positive drug group was twice a week, and the dosage was 5 mg/kg. The mice in the experimental group were administered daily, and the dosage was 1 mg/kg. The administration was continuous for three weeks, and then the mice were sacrificed to end the experiment. During this process, the tumor volume was measured and recorded twice a week. The inhibitory effect of agents on tumor growth was calculated by the GraphPad Prism software.

[3] = target: proteasome activity in blood cells (Mus musculus (Mouse), UniProt O55234); assay: In-vivo pharmacodynamics: proteasome activity in blood cells; conditions: ICR mice, oral single dose 2 mg/kg
proteasome activity in blood cells, sequence (O55234 60-264): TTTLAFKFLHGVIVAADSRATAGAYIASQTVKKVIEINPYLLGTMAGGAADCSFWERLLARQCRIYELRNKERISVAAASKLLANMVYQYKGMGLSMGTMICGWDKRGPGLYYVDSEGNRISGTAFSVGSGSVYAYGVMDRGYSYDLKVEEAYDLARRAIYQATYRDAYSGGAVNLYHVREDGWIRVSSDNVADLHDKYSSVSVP
Protocol: The compound designed in the present invention can be used to treat malignant tumors of the blood system, so the efficacy of the compound was evaluated by detecting the activity of the proteasome in the blood after single administration, and the in-vivo pharmacodynamic study can be carried out by blood sampling at different time points.
1. 8 week-old ICR mice purchased from Shanghai Bikai Laboratory Animal Co., Ltd., were transferred to a barrier system to adapt to the environment for one week.
2. The animals were divided into three groups, including a positive control group (MLN9708) and two experimental groups (IV-9, V-9A), each group having 3 animals.
3. Before administration, 100 μL of blood was sampled from each animal from the orbital venus plexus and used as the blank control, and the proteasome activity measured in blood cells in this sample was taken as 100%. 1 and 24 hrs after administration, blood was sampled from the orbital venus plexus, and the proteasome activity in blood cells was detected. The inhibitory effect of the drug on proteasome activity and recovery of proteasome activity in blood was obtained by comparison with the data at time 0.
4. […]
5. […] A cell lysing solution was added for protein quantification to correct the detected value. […] The dilution was further reacted with the fluorescent peptide substrate to detect the proteasome activity on a microplate reader.

IC50 [1]: 5.69 nM
AUC(0-t) ([2]; Sprague-Dawley (SD), iv): 2550 ng·h/mL
MRT last ([2]; Sprague-Dawley (SD), iv): 2.18 h
half-life ([2]; Sprague-Dawley (SD), iv): 3.1 h
bioavailability ([2]; Sprague-Dawley (SD)): 24.9%
AUC(0-t) ([2]; Sprague-Dawley (SD), po): 634 ng·h/mL
MRT last ([2]; Sprague-Dawley (SD), po): 3.37 h
half-life ([2]; Sprague-Dawley (SD), po): 2.88 h
CL_obs [2]: 11.2 mL/min/kg
Vz_obs [2]: 3.01 L/kg
inhibitory activity on proteasome in blood cells ([3]; 1 hr after administration, compared with MLN9708 5 mg/kg): even better inhibitory activity
proteasome activity in blood cells recovered, of the activity in the control group ([3]; 24 hrs after administration): 40%
Structure (SMILES): CSC[C@H](NC(=O)c1cc(Cl)ccc1Cl)C(=O)N[C@@H](CC(C)C)B1OCCNCCO1 [Compound V-9A, (R)-diethanolamine N-(2,5-dichlorobenzoyl)-3-methylmercaptopropionamido-D-leucine borate]
TW Mean (Day 21) (ARH-77 xenograft tumors; 1 mg/kg daily): 0.65 g
RTV Mean (ARH-77 xenograft tumors; 1 mg/kg daily): 3.72
T/C (ARH-77 xenograft tumors; 1 mg/kg daily): 24.02%
TGI (tumor inhibition rate) (ARH-77 xenograft tumors; 1 mg/kg daily): 63.48%
TV Mean (ARH-77 xenograft tumors; 1 mg/kg daily): 354.78 mm^3

IC50 [1]: 6.6 nM
Structure (SMILES): CSC[C@H](NC(=O)c1cc(Cl)ccc1Cl)C(=O)N[C@@H](CC(C)C)B1OC(=O)CC(CC(=O)O)(C(=O)O)O1 (stereo partly drawn) [Compound V-9B, (R)-N-(2,5-dichlorobenzoyl)-3-methylmercaptopropionamido-D-leucine borate citratte]

CL_obs [2]: 16.4 mL/min/kg
Vz_obs [2]: 2.914 L/kg
AUC(0-t) ([2]; iv): 1890 ng·h/mL
MRT last ([2]; iv): 1.55 h
half-life ([2]; iv): 2.08 h
bioavailability [2]: 11%
AUC(0-t) ([2]; po): 208 ng·h/mL
MRT last ([2]; po): 2.35 h
half-life ([2]; po): 2.14 h
Structure (SMILES): CSC[C@H](NC(=O)c1cc(Cl)ccc1Cl)C(=O)N[C@@H](CC(C)C)B(O)O [IV-9]

Structure (SMILES): CC(C)C[C@H](NC(=O)CNC(=O)c1cc(Cl)ccc1Cl)B1OC(=O)CC(CC(=O)O)(C(=O)O)O1 (stereo partly drawn) [MLN9708, reference compound]
TW Mean (Day 21) (ARH-77 xenograft tumors; 5 mg/kg twice a week): 1.33 g
RTV Mean (ARH-77 xenograft tumors; 5 mg/kg twice a week): 9.13
T/C (ARH-77 xenograft tumors; 5 mg/kg twice a week): 58.94%
TGI (tumor inhibition rate) (ARH-77 xenograft tumors; 5 mg/kg twice a week): 25.28%
TV Mean (ARH-77 xenograft tumors; 5 mg/kg twice a week): 1042.71 mm^3
TGI (tumor inhibition rate) (ARH-77 xenograft tumors; 5 mg/kg twice a week, listed as MLN-9708): 25.28%
